Legend:
[1] = system: chloroquine-resistant (W2) strain of P. falciparum; assay: In vitro anti-malarial activity assay (plasmodial LDH activity), W2 clone; assay type: cell-based; conditions: Plasmodium falciparum, W2; 72 h incubation, LDH readout; read-out: P. falciparum (W2 Clone) IC50
Method: In vitro anti-malarial activity of the representative compounds was determined against chloroquine sensitive (D6) and chloroquine-resistant (W2) strains of P. falciparum.
The anti-malarial activity was determined by measuring plasmodial LDH activity as described earlier (Jain, M.; Khan, S. I.; Tekwani, B. L.; Jacob, M. R.; Singh, S.; Singh, P. P.; Jain, R. Synthesis, anti-malarial, antileishmanial, and antimicrobial activities of some 8-quinolinamine analogues. Bioorg. Med. Chem. 2005, 13, 4458-4466). A suspension of red blood cells infected with D6 or W2 strains of P. falciparum (200 with 2% parasitemia and 2% hematocrit in RPMI 1640 medium supplemented with 10% human serum and 60 µg/mL Amikacin) was added to the wells of a 96-well plate containing 10 μL of serially diluted test samples. The plate was flushed with a gas mixture of 90% N2, 5% O2, and 5% CO2 and incubated at 37° C. for 72 h in a modular incubation chamber (Billups-Rothenberg, Calif.). Parasitic LDH activity was determined by using Malstat™ reagent (Flow Inc., Portland, Oreg.) according to the procedure of Makler and Hinrichs (M. T. Makler and D. J. Hinrichs, Measurement of the lactate dehydrogenase activity of Plasmodium falciparum as an assessment of parasitemia. J. Am. J. Trop. Med. Hyg. 1993, 48(2):205-210). Briefly, 20 μl, of the incubation mixture was mixed with 100 μL of the Malstat™ reagent and incubated at room temperature for 30 min Twenty microliters of a 1:1 mixture of NBT/PES (Sigma, St. Louis, Mo.) was then added and the plate was further incubated in the dark for 1 h. The reaction was then stopped by the addition of 100 μL of a 5% acetic acid solution. The plate was read at 650 nm. Artemisinin and chloroquine were included in each assay as the drug controls. IC50 values were computed from the dose-response curves. To determine the selectivity index of anti-malarial activity of compounds, their cytotoxicity in vitro to mammalian cells was also determined. The assay was performed in 96-well tissue culture-treated plates as described earlier (J. Mustafa, S. I. Khan, G. Ma, L. A. Walker and I. A. Khan, Synthesis and Anticancer Activities of Fatty Acid Analogs of Podophyllotoxin. Lipids. 2004, 39(2):167-172). Vero cells (monkey kidney fibroblasts) were seeded to the wells of 96-well plate at a density of 25,000 cells/well and incubated for 24 h. Samples at different concentrations were added and plates were again incubated for 48 h. The number of viable cells was determined by Neutral Red assay. IC50 values were obtained from dose-response curves. Doxorubicin was used as a positive control.

[2] = system: Plasmodium berghei (chloroquine sensitive strain); assay: In vivo anti-malarial activity, 4-day suppressive test in infected mice; conditions: Swiss albino mice; for Day 4 % Suppression / Day 5 % Suppression / Day 6 % Suppression: intragastric
Method: Tests were performed in a 4-day suppressive standard test using the methods of David, Thurston and Peters (David, A. F., Philip, J. R., Simon, L. C., Reto B., and Solomon N. Antimalarial drug discovery: Efficacy models for compound screening. Nature Reviews. 2004; 3: 509-520). The plasmodium species, that is most widely employed in rodent malaria parasite-Plasmodium berghei (chloroquine sensitive strain), was used to infect Swiss albino mice for a fourday suppressive test. The P. berghei was subsequently maintained in the laboratory by serial blood passage from mouse to mouse. For the study, a donor mouse with a rising parasitemia of 20% was sacrificed and its blood was collected in a slightly heparinized syringe from the auxiliary vessels. The blood was diluted with Trisodium Citrate (TC) medium so that each 0.2 ml contained approximately 107 infected red cells. Each animal received inoculums of about […], which is expected to produce a steadily rising infection in mice.
Male Swiss albino mice were used. The mice were allowed to acclimatize to the laboratory environment under a controlled temperature of 20° C. and at optimum humidity for at least three days before being subjected to the experiments. All of the mice were divided into groups of six, and infected with malaria parasites.
The infection of the recipient mice was initiated by needle passage of the above mentioned parasite preparation, from the donor to healthy test animals via an intraperitoneal route. Therefore, P. berghei infected red blood cells were intraperitoneally injected into the mice from the blood diluted with TC medium so that each 0.2 ml had approximately 106-107 infected red cells (parasite per kg of body weight). Each mouse was infected with single inoculums of 0.2 ml blood.
The 4-day procedures were started on Mondays while blood smears for parasitemia were collected on Fridays. The infected mice were weighed, randomly divided into treatment, vehicle and standard drug groups. […] The compounds were administered through intra gastric route using the stomach tube to ensure the safe ingestion of the compounds and the vehicle.
Thin smears of blood films were obtained from the peripheral blood on the tail from each mouse on day four after infection. The smears were placed on microscopic slides, fixed with methanol and stained with Gemsa at pH 7.2, for parasitemia. […] The number of parasitized erythrocytes in each of the 10-50 such fields were counted three times and the average was calculated to give the Parasitemia of each individual animal. Percentage of suppression was calculated by using the following formula. % Suppression=(Parasitemia in negative control−Parasitemia in study group)/Parasitemia in negative control

O=C(/C=C/c1ccc(O)cc1)OC[C@H]1O[C@@H](Oc2c(-c3ccc(O)cc3)oc3cc(O)cc(O)c3c2=O)[C@H](O)[C@@H](O)[C@@H]1O [Tiliroside]
IC50 [1]: 106 µM | Day 4 % Suppression ([2]; 10 mg/kg daily for 4 days): 39.1% | Day 5 % Suppression ([2]; 10 mg/kg daily for 4 days): 51.5% | Day 6 % Suppression ([2]; 10 mg/kg daily for 4 days): 35.1% | Day 4 % Suppression ([2]; 50 mg/kg daily for 4 days): 56.5% | Day 5 % Suppression ([2]; 50 mg/kg daily for 4 days): 64.0% | Day 6 % Suppression ([2]; 50 mg/kg daily for 4 days): 54.0% | Day 4 % Suppression ([2]; 100 mg/kg daily for 4 days): 34.7% | Day 5 % Suppression ([2]; 100 mg/kg daily for 4 days): 39.3% | Day 6 % Suppression ([2]; 100 mg/kg daily for 4 days): 21.6% | Day 4 % Suppression ([2]; 200 mg/kg daily for 4 days): 21.7% | Day 5 % Suppression ([2]; 200 mg/kg daily for 4 days): 30.3% | Day 6 % Suppression ([2]; 200 mg/kg daily for 4 days): 18.9% | Day 5 % Suppression ([2]; 400 mg/kg daily for 4 days): 9.0% | maximum suppression ratio ([2]; maximum over doses and days): 60%

— patent US8846627B2, “Method for treatment of malaria” (The Second Military Medical University, priority 2009, dated 2014)
